# Target: p300 HAT domain (residues 1287-1666) (Homo sapiens (Human), UniProt Q09472)
# Test: p300 HAT SPA assay (scintillation proximity assay, acetylation of biotinylated H3(1-21) peptide)
# Type: biochemical
# Conditions: p300 HAT domain; average of at least 2 replicate titrations; read-out: P300 HAT SPA IC50
# Description: In a typical experiment the p300 HAT inhibitory activity of the compounds described herein was determined in accordance with the following experimental method.
# The expressed protein was purified by Ni2+ affinity, followed by anion exchange chromatography. Appropriate fractions were pooled and buffer exchanged into 20 mM Hepes pH 7.5, 150 mM NaCl, and 1 mM TCEP.
# 35 μL of the reaction volume was transferred to a 384-well streptavidin FlashPlate (PerkinElmer) using a Bravo liquid handler (Velocity 11) and incubated for 1.5 hr at RT. […] Data were analyzed in Genedata to determine inhibitor IC50 values.
# Chain of p300 HAT domain (residues 1287-1666) (Q09472 1287-1666): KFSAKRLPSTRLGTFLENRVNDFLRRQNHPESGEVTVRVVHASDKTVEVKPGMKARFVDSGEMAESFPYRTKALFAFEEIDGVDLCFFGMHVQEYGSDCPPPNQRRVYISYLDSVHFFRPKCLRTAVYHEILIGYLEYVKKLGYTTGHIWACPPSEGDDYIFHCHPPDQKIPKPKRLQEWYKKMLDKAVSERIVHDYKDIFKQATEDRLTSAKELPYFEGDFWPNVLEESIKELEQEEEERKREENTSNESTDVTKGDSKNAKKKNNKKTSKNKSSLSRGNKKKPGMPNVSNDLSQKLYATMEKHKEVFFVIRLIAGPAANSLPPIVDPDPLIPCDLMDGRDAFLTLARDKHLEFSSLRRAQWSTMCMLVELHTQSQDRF
row,Compound,IC50
1,"Cn1cc(-c2ccc3c(C(=O)C(NCCc4ccc(C(N)=O)cc4Cl)c4ccccc4)c[nH]c3c2)cn1 (racemic) [143 racemic, 3-chloro-4-(2-((2-(6-(1-methyl-1H-pyrazol-4-yl)-1H-indol-3-yl)-2-oxo-1-phenylethyl)amino)ethyl)benzamide]",0.266 µM
2,"NS(=O)(=O)c1ccc(CCNC(C(=O)c2c[nH]c3cc(C(F)(F)F)ccc23)c2ccccc2)cc1 (single isomer, unassigned) [1 Isomer 1]",14.1 µM
3,"NS(=O)(=O)c1ccc(CCNC(C(=O)c2c[nH]c3cc(C(F)(F)F)ccc23)c2ccccc2)cc1 (single isomer, unassigned) [1 Isomer 2]",> 30 µM
4,"O=C(c1c[nH]c2ccccc12)C(NCCc1ccccc1Cl)c1ccccc1 (single isomer, unassigned) [3 Isomer 1]",> 60 µM
5,"O=C(c1c[nH]c2ccccc12)C(NCCc1ccccc1Cl)c1ccccc1 (single isomer, unassigned) [3 Isomer 2]",6.39 µM
6,"O=C(c1c[nH]c2ccccc12)C(NCCc1cccc(Cl)c1)c1ccccc1 (single isomer, unassigned) [4 Isomer 1]",> 60 µM
7,"O=C(c1c[nH]c2ccccc12)C(NCCc1cccc(Cl)c1)c1ccccc1 (single isomer, unassigned) [4 Isomer 2]",4.4 µM
8,"O=C(c1c[nH]c2ccccc12)C(NCCc1ccc(Cl)cc1)c1ccccc1 (single isomer, unassigned) [5 Isomer 1]",8.76 µM
9,"O=C(c1c[nH]c2ccccc12)C(NCCc1ccc(Cl)cc1)c1ccccc1 (single isomer, unassigned) [5 Isomer 2]",0.867 µM
10,"COc1ccccc1CCNC(C(=O)c1c[nH]c2ccccc12)c1ccccc1 (single isomer, unassigned) [6 Isomer 1]",> 60 µM
11,"COc1cccc(CCNC(C(=O)c2c[nH]c3ccccc23)c2ccccc2)c1 (single isomer, unassigned) [7 Isomer 1]",7.35 µM
12,"COc1ccc(CCNC(C(=O)c2c[nH]c3ccccc23)c2ccccc2)cc1 (single isomer, unassigned) [8 Isomer 1]",43.2 µM
13,"NS(=O)(=O)c1ccc(CCNC(C(=O)c2c[nH]c3c(Cl)cccc23)c2ccccc2)cc1 (single isomer, unassigned) [15 Isomer 1]",> 60 µM
14,"Cc1[nH]c2ccccc2c1C(=O)C(NCCc1ccc(S(N)(=O)=O)cc1)c1ccccc1 (single isomer, unassigned) [16 Isomer 1]",49.2 µM
15,"Cn1cc(C(=O)C(NCCc2ccc(S(N)(=O)=O)cc2)c2ccccc2)c2ccccc21 (single isomer, unassigned) [17 Isomer 1]",7.99 µM
16,"Cn1cc(C(=O)C(NCCc2ccc(S(N)(=O)=O)cc2)c2ccccc2)c2ccccc21 (single isomer, unassigned) [17 Isomer 2]",1.85 µM
17,"O=C(c1c[nH]c2ccccc12)C(NCCN1CCOCC1)c1ccccc1 (single isomer, unassigned) [18 Isomer 1]",> 60 µM
18,"O=C(c1c[nH]c2ccccc12)C(NCCN1CCOCC1)c1ccccc1 (single isomer, unassigned) [18 Isomer 2]",> 60 µM
19,"O=C(c1c[nH]c2ccccc12)C(NCCc1ccc(Cl)cc1Cl)c1ccccc1 (single isomer, unassigned) [19 Isomer 1]",> 60 µM
20,"O=C(c1c[nH]c2ccccc12)C(NCCc1ccc(Cl)c(Cl)c1)c1ccccc1 (single isomer, unassigned) [20 Isomer 1]",> 60 µM

row,Compound,IC50
1,"O=C(c1c[nH]c2ccccc12)C(NCCc1ccc(Cl)c(Cl)c1)c1ccccc1 (single isomer, unassigned) [20 Isomer 2]",3.07 µM
2,"O=C(c1c[nH]c2ccccc12)C(NCCc1ccc(C(F)(F)F)cc1)c1ccccc1 (single isomer, unassigned) [21 Isomer 2]",32.8 µM
3,"O=C(c1c[nH]c2ccccc12)C(NCCc1ccc(F)cc1)c1ccccc1 (single isomer, unassigned) [22 Isomer 1]",> 60 µM
4,"CC(NCCc1ccc(Cl)cc1)C(=O)c1c[nH]c2ccccc12 (single isomer, unassigned) [23 Isomer 1]",> 60 µM
5,"CC(NCCc1ccc(Cl)cc1)C(=O)c1c[nH]c2ccccc12 (single isomer, unassigned) [23 Isomer 2]",> 60 µM
6,"O=C(c1c[nH]c2ccccc12)C(NCCc1ccc(Cl)cc1)C1CC1 (single isomer, unassigned) [24 Isomer 1]",52.2 µM
7,"O=C(c1c[nH]c2ccccc12)C(NCCc1ccc(Cl)cc1)C1CC1 (single isomer, unassigned) [24 Isomer 2]",> 60 µM
8,"O=C(c1c[nH]c2ccccc12)C(NCCc1ccc(Cl)cc1)C1CCCC1 (single isomer, unassigned) [25 Isomer 1]",> 60 µM
9,"O=C(c1c[nH]c2ccccc12)C(NCCc1ccc(Cl)cc1)C1CCCC1 (single isomer, unassigned) [25 Isomer 2]",> 60 µM
10,"CC(Cc1ccc(Cl)cc1)NC(C(=O)c1c[nH]c2ccccc12)c1ccccc1 (single isomer, unassigned) [27 Isomer 2]",> 60 µM
11,"CC(Cc1ccc(Cl)cc1)NC(C(=O)c1c[nH]c2ccccc12)c1ccccc1 (single isomer, unassigned) [27 Isomer 3]",> 60 µM
12,"CC(Cc1ccc(Cl)cc1)NC(C(=O)c1c[nH]c2ccccc12)c1ccccc1 (single isomer, unassigned) [27 Isomer 4]",> 60 µM
13,"COc1ccc(CCNC(C(=O)c2c[nH]c3c(Cl)cccc23)c2ccccc2)cc1 (single isomer, unassigned) [28 Isomer 1]",7.58 µM
14,"COc1ccc(CCNC(C(=O)c2c[nH]c3c(Cl)cccc23)c2ccccc2)cc1 (single isomer, unassigned) [28 Isomer 2]",1.37 µM
15,"O=C(c1c[nH]c2ccccc12)C(NCCc1cn[nH]c1)c1ccccc1 (single isomer, unassigned) [34 Isomer 1]",> 60 µM
16,"O=C(c1c[nH]c2ccccc12)C(NCCc1cn[nH]c1)c1ccccc1 (single isomer, unassigned) [34 Isomer 2]",24.7 µM
17,"Cn1cc(CCNC(C(=O)c2c[nH]c3ccccc23)c2ccccc2)cn1 (single isomer, unassigned) [35 Isomer 1]",39.8 µM
18,"Cn1cc(CCNC(C(=O)c2c[nH]c3ccccc23)c2ccccc2)cn1 (single isomer, unassigned) [35 Isomer 2]",43.5 µM
19,"O=C(c1c[nH]c2ccccc12)C(NCCn1ccnc1)c1ccccc1 (single isomer, unassigned) [36 Isomer 1]",> 60 µM
20,"O=C(c1c[nH]c2ccccc12)C(NCCn1ccnc1)c1ccccc1 (single isomer, unassigned) [36 Isomer 2]",> 60 µM

row,Compound,IC50
1,"O=C(c1c[nH]c2ccccc12)C(NCCn1cnc2ccccc21)c1ccccc1 (single isomer, unassigned) [37 Isomer 1]",> 60 µM
2,"O=C(c1c[nH]c2ccccc12)C(NCCn1cnc2ccccc21)c1ccccc1 (single isomer, unassigned) [37 Isomer 2]",> 60 µM
3,"Cc1ccc(CCNC(C(=O)c2c[nH]c3ccccc23)c2ccccc2)cc1 (single isomer, unassigned) [38 Isomer 1]",19 µM
4,"CN(C)c1ccc(CCNC(C(=O)c2c[nH]c3ccccc23)c2ccccc2)cc1 (single isomer, unassigned) [39 Isomer 1]",> 60 µM
5,"O=C(c1c[nH]c2ccccc12)C(NCCc1ccc(OC(F)(F)F)cc1)c1ccccc1 (single isomer, unassigned) [40 Isomer 1]",> 60 µM
6,"O=C(c1c[nH]c2ccccc12)C(NCCN1CCCCC1=O)c1ccccc1 (single isomer, unassigned) [41 Isomer 1]",> 60 µM
7,"O=C(c1c[nH]c2ccccc12)C(NCCN1CCCCC1=O)c1ccccc1 (single isomer, unassigned) [41 Isomer 2]",> 60 µM
8,"Cc1ccc2c(C(=O)C(NCCc3ccc(F)cc3)c3ccccc3)c[nH]c2c1 (single isomer, unassigned) [48 Isomer 1]",> 60 µM
9,"CN(C)C(=O)CCc1ccc2c(C(=O)C(NCCc3ccc(F)cc3)c3ccccc3)c[nH]c2c1 (single isomer, unassigned) [49 Isomer 1]",> 30 µM
10,"NS(=O)(=O)c1ccc(CCNC(C(=O)c2c[nH]c3c(C(F)(F)F)cccc23)c2ccccc2)cc1 (single isomer, unassigned) [50 Isomer 1]",6.93 µM
11,"NS(=O)(=O)c1ccc(CCNC(C(=O)c2c[nH]c3c(C(F)(F)F)cccc23)c2ccccc2)cc1 (single isomer, unassigned) [50 Isomer 2]",> 30 µM
12,"COc1ccc2c(C(=O)C(NCCc3ccc(S(N)(=O)=O)cc3)c3ccccc3)c[nH]c2c1 (single isomer, unassigned) [51 Isomer 1]",> 30 µM
13,"O=C(c1c[nH]c2ccccc12)C(NCCc1ccc(Cl)nc1)c1ccccc1 (single isomer, unassigned) [52 Isomer 1]",15.2 µM
14,"O=C(c1c[nH]c2ccccc12)C(NCCc1ccc(Cl)nc1)c1ccccc1 (single isomer, unassigned) [52 Isomer 2]",2.83 µM
15,"CCNc1ccc(CCNC(C(=O)c2c[nH]c3ccccc23)c2ccccc2)cn1 (single isomer, unassigned) [53 Isomer 1]",> 30 µM
16,"COCCNc1ccc(CCNC(C(=O)c2c[nH]c3ccccc23)c2ccccc2)cn1 (single isomer, unassigned) [54 Isomer 1]",> 30 µM
17,"COCCNc1ccc(CCNC(C(=O)c2c[nH]c3ccccc23)c2ccccc2)cn1 (single isomer, unassigned) [54 Isomer 2]",15.7 µM
18,"NS(=O)(=O)c1ccc(CCNC(C(=O)c2c[nH]c3c(Cl)c(Cl)ccc23)c2ccccc2)cc1 (single isomer, unassigned) [55 Isomer 1]",7.83 µM
19,"NS(=O)(=O)c1ccc(CCNC(C(=O)c2c[nH]c3c(Cl)c(Cl)ccc23)c2ccccc2)cc1 (single isomer, unassigned) [55 Isomer 2]",> 30 µM

# Source: US11414384B2, “P300/CBP hat inhibitors” (Constellation Pharmaceuticals, Inc., priority 2018, dated 2022)
